In article PMC6449356 (Scientific Reports, 2019):
Values after ≈ are worked out from the molar mass of the structure shown. Where two headings read alike, the source gives them in different places.

Tests used:
[1] = tested on: cell-free extracts from E. coli and from S. aureus linezolid-susceptible and -resistant strains; assay: In vitro translation in cell-free extracts, summary over the three extracts; type: biochemical; details: range over extracts from E. coli and S. aureus linezolid-susceptible and -resistant strains
Protocol: (§1) The cell-free protein synthesis reactions were carried out based on a procedure published for E. coli[37] and adapted for S. aureus as described previously for C. difficile. To improve expression from extracts derived from S. aureus, the firefly luciferase reporter gene was resynthesized with codons optimized for S. aureus at GeneArt AG (Regensburg, Germany) and cloned into plasmid pSP-luc_NF Fusion (Promega), replacing the existing luciferase gene. In addition, a 180-bp-long BglII-HindIII promoter fragment of gene abrB310 derived from Clostridium acetobutylicum was synthesized and cloned upstream of the codon-optimized luciferase gene for efficient translation, leading to plasmid pSPAbrlac-luc_Saur. […]
(§2) Test compounds diluted in 8% DMSO were added to reaction buffer containing bacterial extract and SP6 RNA polymerase, yielding final concentrations of 100, 20, 4, 0.8, 0.16, 0.04, 0.008, 0.0016, and 0 µM. […] The luminescence was immediately measured after addition of the luciferase substrate Bright Glo (Promega, E2610) using a Tecan SpectralFluor Plus Reader (GeniosPro) instrument (parameters: integration time 1000 ms; intensity normal). Fifty percent inhibitory concentrations (IC50s) were calculated from the data.

[2] = tested on: cell-free extract from S. aureus ATCC 29213 (coupled transcription/translation); assay: In vitro transcription/translation (IVTT) assay, S. aureus wt extract; type: biochemical, Staphylococcus aureus; details: S. aureus ATCC 29213 extract, average value and range of three independent experiments
Protocol: The cell-free protein synthesis reactions were carried out based on a procedure published for E. coli[37] and adapted for S. aureus as described previously for C. difficile. To improve expression from extracts derived from S. aureus, the firefly luciferase reporter gene was resynthesized with codons optimized for S. aureus at GeneArt AG (Regensburg, Germany) and cloned into plasmid pSP-luc_NF Fusion (Promega), replacing the existing luciferase gene. In addition, a 180-bp-long BglII-HindIII promoter fragment of gene abrB310 derived from Clostridium acetobutylicum was synthesized and cloned upstream of the codon-optimized luciferase gene for efficient translation, leading to plasmid pSPAbrlac-luc_Saur. S. aureus bacterial extracts were prepared according to a simplified E. coli procedure using a FastPrep®-24 instrument from Lucerna Chem AG (Cat No. 6004-500) and lysing matrix B (Lucerna Chem, Cat No. 116911100; silica spheres < 100 µm).
Test compounds diluted in 8% DMSO were added to reaction buffer containing bacterial extract and SP6 RNA polymerase, yielding final concentrations of 100, 20, 4, 0.8, 0.16, 0.04, 0.008, 0.0016, and 0 µM. Samples were mixed and pre-incubated for 10 min at RT before 100 ng plasmid pBestluc (E. coli) or 500 ng plasmid pSPAbrlac-luc_Saur (S. aureus) was added. After mixing, the plate was incubated at RT for 90 min. The luminescence was immediately measured after addition of the luciferase substrate Bright Glo (Promega, E2610) using a Tecan SpectralFluor Plus Reader (GeniosPro) instrument (parameters: integration time 1000 ms; intensity normal). Fifty percent inhibitory concentrations (IC50s) were calculated from the data.

[3] = tested on: S. aureus linezolid-nonsusceptible strains carrying cfr (12); assay: MIC50/MIC90, broth microdilution (CLSI), strain panel; type: cell-based, Staphylococcus aureus; details: linezolid-nonsusceptible S. aureus carrying cfr (12 strains)
Description: (§3) resistance mechanisms using broth microdilution methods (CLSI).
(§4) Cadazolid Lin e zolid Vancom yc in
(§5) lin e zolid-nonsusceptible (26**)
(§6) * The 12 tested wild-type control strains include methicillin [oxacillin]-resistant [MRSA]
(§7) strains [41.7%] from JMI Laboratories (North Liberty, Iowa).
(§8) ** The 26 clinical strains tested included 12 cfr-positive and 14 23S rRNA mutants [G2576U].

[4] = tested on: S. aureus linezolid-nonsusceptible G2576U mutants (14); assay: as above; type: cell-based, Staphylococcus aureus; details: linezolid-nonsusceptible S. aureus G2576U mutants (14 strains)
Description: as §3, §4, §5, §6, §7, §8

[5] = tested on: S. aureus wild-type strains (12); assay: as above; type: cell-based, Staphylococcus aureus; details: wild-type S. aureus (12 strains)
Description: as §3, §4, §5, §6, §7, §8

[6] = tested on: E. coli ATCC 25922; assay: MIC, micro dilution (CLSI); type: cell-based; details: Escherichia coli, ATCC25922
Protocol: (§9) The MICs were determined using the micro dilution method recommended by the Clinical and Laboratory Standards Institute (CLSI).

[7] = tested on: E. coli MG1655 tolC::kan; assay: MIC, micro dilution (CLSI); type: cell-based; details: Escherichia coli
Protocol: as §9

[8] = tested on: S. aureus S1 LZD^R; assay: MIC, micro dilution (CLSI); type: cell-based; details: Staphylococcus aureus
Protocol: as §9

[9] = tested on: S. aureus ATCC 29213; assay: MIC, micro dilution (CLSI); type: cell-based; details: Staphylococcus aureus, ATCC29213, median value of at least 3 determinations
Protocol: as §9

[10] = tested on: cell-free extract from E. coli ATCC 25922 (coupled transcription/translation); assay: In vitro transcription/translation (IVTT) assay, E. coli extract; type: biochemical, Escherichia coli; details: E. coli ATCC 25922 extract; average value and range of three independent experiments
[11] = tested on: cell-free extract from S. aureus S1 (LZD^R, homozygous G2576U in 23S rRNA); assay: In vitro transcription/translation (IVTT) assay, S. aureus S1 LZD-resistant extract; type: biochemical, Staphylococcus aureus; details: average value and range of three independent experiments
Protocol: as §1, §2

Row | Structure (SMILES) | IC50 [1] | IC50 [2] | MIC50 [3] | MIC90 [3] | MIC50 [4] | MIC90 [4] | MIC50 [5] | MIC90 [5] | MIC ([6]; E. coli ATCC 25922, median value of at least 3 determinations, read-out: MIC) | MIC [7] | MIC [8] | MIC [9] | IC50 [10] | IC50 [11] | IC50 ([2]; listed as LZD) | MIC [6]
1 | O=C(O)c1cn(C2CC2)c2cc(N3CCC(O)(COc4ccc(N5C[C@H](CO)OC5=O)cc4F)CC3)c(F)cc2c1=O [Cadazolid] | 0.24 to 0.33 µM | 0.32 µM | 0.25 | 0.5 | 0.5 | 0.5 | 0.25 | 0.25 | 8 µg/mL (≈ 13.7 µM) | ≤ 0.063 µg/mL | 1 µg/mL (≈ 1.71 µM) | 0.5 µg/mL (≈ 0.854 µM) | 0.24 µM | 0.33 µM | – | –
2 | CC(=O)NC[C@H]1CN(c2ccc(N3CCOCC3)c(F)c2)C(=O)O1 [Linezolid] | – | 2.61 µM | 8 | 8 | 8 | 16 | 1 | 1 | – | 8 µg/mL (≈ 23.7 µM) | 32 µg/mL (≈ 94.9 µM) | 2 µg/mL (≈ 5.93 µM) | 4.03 µM | 7.03 µM | 2.6 µM | > 32 µg/mL
3 | CN[C@H](CC(C)C)C(=O)N[C@H]1C(=O)N[C@@H](CC(N)=O)C(=O)N[C@H]2C(=O)N[C@H]3C(=O)N[C@H](C(=O)N[C@H](C(=O)O)c4cc(O)cc(O)c4-c4cc3ccc4O)[C@H](O)c3ccc(c(Cl)c3)Oc3cc2cc(c3O[C@@H]2O[C@H](CO)[C@@H](O)[C@H](O)[C@H]2O[C@H]2C[C@](C)(N)[C@H](O)[C@H](C)O2)Oc2ccc(cc2Cl)[C@H]1O [Vancomycin] | – | – | 0.5 | 1 | 1 | 1 | 1 | 1 | – | – | – | – | – | – | – | –
